# Target: EGFR (UniProt P00533)
# Settings: not given
# Sequence of EGFR (P00533 whole entry, looked up): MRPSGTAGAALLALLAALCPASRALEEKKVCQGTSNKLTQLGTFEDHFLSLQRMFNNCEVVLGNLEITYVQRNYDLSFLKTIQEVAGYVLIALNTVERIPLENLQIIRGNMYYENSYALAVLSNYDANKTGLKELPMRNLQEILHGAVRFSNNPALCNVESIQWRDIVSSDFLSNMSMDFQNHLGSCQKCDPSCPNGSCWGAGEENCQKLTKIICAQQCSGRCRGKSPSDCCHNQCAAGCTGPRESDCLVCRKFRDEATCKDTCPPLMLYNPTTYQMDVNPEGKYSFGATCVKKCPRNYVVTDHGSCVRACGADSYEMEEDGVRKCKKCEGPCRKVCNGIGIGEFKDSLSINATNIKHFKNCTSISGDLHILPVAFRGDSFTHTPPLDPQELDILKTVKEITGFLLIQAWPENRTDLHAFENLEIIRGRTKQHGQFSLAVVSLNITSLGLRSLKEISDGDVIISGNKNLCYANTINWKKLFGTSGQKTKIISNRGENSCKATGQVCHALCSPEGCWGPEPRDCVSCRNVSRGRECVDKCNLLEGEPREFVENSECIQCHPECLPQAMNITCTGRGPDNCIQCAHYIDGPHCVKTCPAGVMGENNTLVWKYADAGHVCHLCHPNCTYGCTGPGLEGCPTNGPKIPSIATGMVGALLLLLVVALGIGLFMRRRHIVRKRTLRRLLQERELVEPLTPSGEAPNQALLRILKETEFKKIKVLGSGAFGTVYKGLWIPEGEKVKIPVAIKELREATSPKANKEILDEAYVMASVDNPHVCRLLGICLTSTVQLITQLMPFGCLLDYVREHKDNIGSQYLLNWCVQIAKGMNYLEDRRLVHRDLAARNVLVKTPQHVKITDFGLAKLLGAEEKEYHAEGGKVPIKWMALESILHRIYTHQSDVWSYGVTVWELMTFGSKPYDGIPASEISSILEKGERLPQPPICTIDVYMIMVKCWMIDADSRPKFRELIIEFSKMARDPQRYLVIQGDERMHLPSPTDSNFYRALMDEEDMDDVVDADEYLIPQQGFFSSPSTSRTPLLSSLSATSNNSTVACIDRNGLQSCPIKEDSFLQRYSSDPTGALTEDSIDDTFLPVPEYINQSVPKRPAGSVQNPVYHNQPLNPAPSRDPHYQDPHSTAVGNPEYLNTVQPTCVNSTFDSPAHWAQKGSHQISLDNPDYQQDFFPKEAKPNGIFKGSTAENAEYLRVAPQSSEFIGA
row,IC50,SMILES
1,41 nM,COc1cc2c(Nc3cccc(Cl)c3F)ncnc2cc1O[C@@H]1CCN(C(=O)C2CCC(=O)N2)C1 (stereo partly drawn)

# Target: EGFR (human) (UniProt P00533)
# Settings: kb epidermoid nasopharynx
# Sequence of EGFR (human) (P00533 whole entry, looked up): as above
row,SMILES,IC50
1,COc1cc2c(Nc3cccc(Cl)c3F)ncnc2cc1O[C@@H]1CCN(C(=O)C2CCC(=O)N2)C1 (stereo partly drawn),397 nM
2,COc1cc2c(Nc3cccc(Cl)c3F)ncnc2cc1OC1CCN(C(=O)CCO)CC1,109 nM
3,COc1cc2c(Nc3cccc(Cl)c3F)ncnc2cc1OC1CN(C(=O)[C@H](C)O)C1,71 nM
4,COc1cc2ncnc(Nc3cccc(Cl)c3F)c2cc1CN1CSC[C@H]1C(N)=O,50 nM
5,COc1cc2c(Nc3cccc(Cl)c3F)ncnc2cc1OC1CN(C(=O)[C@@H](C)O)C1,48 nM
6,COc1cc2ncnc(Nc3ccc(F)c(Cl)c3)c2cc1CN1CCC[C@@H]1C(=O)NCC#N,143 nM
7,COCCN1CCN(Cc2cc3c(Nc4cccc(Cl)c4F)ncnc3cc2OC)C(C(N)=O)C1 (stereo not drawn),160 nM

# The remaining lines, values ahead:
row,IC50,SMILES
1,119 nM,COCC(=O)N1CC[C@@H](Oc2cc3ncnc(Nc4cccc(Cl)c4F)c3cc2OC)C1
2,112 nM,COCCOCC(=O)N1CCC(Oc2cc3ncnc(Nc4cccc(Cl)c4F)c3cc2OC)CC1
3,84 nM,COCCC(=O)N1CCC(Oc2cc3ncnc(Nc4cccc(Cl)c4F)c3cc2OC)CC1
4,37 nM,COc1cc2c(Nc3cccc(Cl)c3F)ncnc2cc1OC1CCN(C(=O)CO)CC1
5,55 nM,COCC(=O)N1CCC(Oc2cc3ncnc(Nc4cccc(Cl)c4F)c3cc2OC)CC1

# From the Kinase Knowledgebase extract (Sharma et al. 2016)
